Patent US7704992B2, “Hepatitis C virus inhibitors” (Bristol-Myers Squibb Company, priority 2008, dated 2010)

Test system: HCV 1b-377-neo replicon cells
Experiment: HCV Replicon assay, HCV 1b genotype
Assay type: cell-based
Details: Hepatitis C virus, class symbol, read-out: EC50 range against HCV 1b
Experimental: An HCV Replicon assay was utilized in the present disclosure, and was prepared, conducted and validated as described in commonly owned PCT/US2006/022197 and in O'Boyle et. al. Antimicrob Agents Chemother. 2005 April; 49(4): 1346-53.
HCV 1b-377-neo replicon cells were used to test the currently described compound series as well as cells resistant to compound A containing a Y2065H mutation in NS5A (described in application PCT/US2006/022197). The compounds tested were determined to have more than 10-fold less inhibitory activity on cells containing the mutation than wild-type cells indicating a related mechanism of action between the two compound series. Thus, the compounds of the present disclosure can be effective to inhibit the function of the HCV NS5A protein and are understood to be as effective in combinations as previously described in application PCT/US2006/022197 and commonly owned WO/04014852. Further, the compounds of the present disclosure can be effective against the HCV 1b genotype. It should also be understood that the compounds of the present disclosure can inhibit multiple genotypes of HCV. […] In one embodiment compounds of the present disclosure are active against the 1a, 1b, 2a, 2b, 3a, 4a, and 5a genotypes.

SMILES: COC(=O)N[C@H](C(=O)N1CCC[C@H]1c1ncc(-c2ccc3c(c2)oc2cc(-c4cnc([C@@H]5CCCN5C(=O)[C@@H](NC(=O)OC)C(C)(C)C)[nH]4)ccc23)[nH]1)C(C)(C)C [Example 20, methyl ((1S)-1-(((2S)-2-(4-(7-(2-((2S)-1-((2S)-2-((methoxycarbonyl)amino)-3,3-dimethylbutanoyl)-2-pyrrolidinyl)-1H-imidazol-4-yl)dibenzo[b,d]furan-3-yl)-1H-imidazol-2-yl)-1-pyrrolidinyl)carbonyl)-2,2-dimethylpropyl)carbamate]
- EC50: 1 to 100 pM
